The values that follow are results of earlier work, collected in patent publication US9605003B2, “Heterocyclic compounds and uses thereof” (Infinity Pharmaceuticals, Inc., priority 2011, dated 2017).

Each structure is given as a SMILES string. Counter-ions that a name gives are not always drawn.

The test system of the series is p190 transduced leukemic cells. The settings on record: about 70 mg/kg twice daily; cited from earlier work.

In the case of `Cc1ccc(NC(=O)c2ccc(CN3CCN(C)CC3)cc2)cc1Nc1nccc(-c2cccnc2)n1` [imatinib, Imatinib Mesylate], the leukemogenesis result is “delay but not cure leukemogenesis”.
